Reference: paper PMC7170901, “Design and efficient synthesis of pyrazoline and isoxazole bridged indole C-glycoside hybrids as potential anticancer agents” (Scientific Reports, 2020)

Key:
Format in all cases: cell-based
[1] = MTT cell viability assay in normal MCF-10A cells; conditions: human, MCF-10A normal mammary epithelial cells, read-out: Cell Viability (%) ± SD
Description: (§1) MDA-MB-231 represents a specific subtype, known as the triple negative breast cancer (TNBC). […] We also included normal mammary epithelial MCF-10A cells in our experiments to confirm if the growth-inhibitory activities of the selected compounds are truly cancer cell-specific. […] Furthermore, none of these compounds did have any growth inhibitory activity against normal breast epithelial cell (MCF-10A). The IC50 values for these compounds against MDA-MB-231 cells (Fig. 2) are also included in Table 4 for comparison. Cell viability assay was performed as per standard protocols. After 72 h of cell incubation in the presence or absence of each compound, cell viability was evaluated by using MTT ((3-(4,5-dimethylthiazol-2-yl)-2,5-diphenyltetrazolium bromide)) (Himedia Pvt. Ltd, India). In brief, this is a homogeneous, colorimetric method for determining the number of viable cells in proliferation, cytotoxicity or chemosensitivity assays. MTT is bio reduced by cells into a formazan product that is […]. After 72 h of compound treatment, the medium was removed and 100 μL of MTT (0.5 mg ml^−1 in media) was added to the cells and kept in the dark for 3 h at 37 °C in the CO2 incubator and the formazan formed was dissolved in 100 μL DMSO (Dimethyl Sulfoxide). The absorbance of the formazan product at 595 nm was measured directly from 96-well assay plates without additional processing using a multimode plate reader (Bio-Rad) (iMark, India), as absorbance is directly proportional to the number of viable cells in culture. The percentage of viable cells in each group is determined with respect to the untreated control cells.

MDA-MB-453 cells = assay: MTT cell viability assay in MDA-MB-453 cells; conditions: Homo sapiens, read-out: Cell Viability (%) ± SD
Description: as §1

[2] = system: MCF-7 breast cancer cells; assay: MTT cell viability assay in MCF-7 cells; conditions: Homo sapiens, MCF7, read-out: Cell Viability (%) ± SD
[3] = system: MDA-MB-231 (human breast cancer) cell line; assay: MTT cell viability assay in MDA-MB-231 cells; conditions: for viability at 10 µM / viability at 25 µM / viability at 50 µM: MDA-MB-231, 72 h; for viability at 10 µM / viability at 25 µM / viability at 50 µM / Cell Viability (%) ± SD: 72 h, MTT
Description: IC50 values were determined by plotting values of percent cell viability against concentration of each of these compounds. […] The experiments were performed in triplicates, n = 3 and ± SE value was calculated for each data point.
The human breast cancer cell line MDA-MB-231 were cultured in Dulbecco’s Modified Eagle’s Medium (DMEM) (Gibco, St. Louis, USA) supplemented with 10% heat inactivated FBS (Fetal Bovine Serum, Gibco, USA) and 1% penicillin-streptomycin (Gibco Canada) in humidified CO2 incubator at 37 °C. The cells were maintained as a monolayer in 100 mm culture plate. The cells used for each experiment were of less than 8 passage number. Sub culturing of cells was performed every third day, followed by trypsin EDTA treatment.
Cell viability assay was performed as per standard protocols. […] Ltd, India). In brief, this is a homogeneous, colorimetric method for determining the number of viable cells in proliferation, cytotoxicity or chemosensitivity assays. MTT is bio reduced by cells into a formazan product that is soluble in the tissue culture medium. […] The absorbance of the formazan product at 595 nm was measured directly from 96-well assay plates without additional processing using a multimode plate reader (Bio-Rad) (iMark, India), as absorbance is directly proportional to the number of viable cells in culture. The percentage of viable cells in each group is determined with respect to the untreated control cells.

[4] = Homo sapiens, MDA-MB-231, 10 µM, read-out: Cell Viability (%) ± SD
[5] = Homo sapiens, MDA-MB-231, 25 µM, read-out: Cell Viability (%) ± SD
[6] = Homo sapiens, MDA-MB-231, 50 µM, read-out: Cell Viability (%) ± SD

| Molecule | viability at 10 µM [3, 4] [%] | viability at 25 µM [3, 5] [%] | viability at 50 µM [3, 6] [%] | further results |
| --- | --- | --- | --- | --- |
| O=C(/C=C/c1c[nH]c2ccc([N+](=O)[O-])cc12)C[C@@H]1O[C@H](CO)[C@H](O)[C@H](O)[C@H]1O [Compound 14, (E)-4-(5-nitro-1H-indol-3-yl)-1-((2S,3R,4R,5R,6R)-3,4,5-trihydroxy-6-(hydroxymethyl)tetrahydro-2H-pyran-2-yl)but-3-en-2-one] | 73.6 ± 11.8 | 59 ± 12.5 | 60.6 ± 5.61 | viability at 72 h, 25 µM ([1]; 25 µM): 86.8 ± 2.8%; viability at 72 h, 50 µM ([1]; 50 µM): 84.6 ± 0.7%; viability at 72 h, 100 µM ([1]; 100 µM): 80 ± 1.5%; viability at 1 µM (MDA-MB-453 cells; MDA-MB-453, 1 µM): 80.8 ± 3.2%; viability at 10 µM (MDA-MB-453 cells; MDA-MB-453, 10 µM): 82.2 ± 11.5%; viability at 25 µM (MDA-MB-453 cells; MDA-MB-453, 25 µM): 65.3 ± 5.8%; viability at 1 µM ([2]; MCF-7, 1 µM): 100 ± 4.5%; viability at 10 µM ([2]; MCF-7, 10 µM): 69.8 ± 1.8%; viability at 25 µM ([2]; MCF-7, 25 µM): 66.8 ± 3% |
| OC[C@H]1O[C@@H](Cc2cc(-c3c[nH]c4ccc(Cl)cc34)on2)[C@H](O)[C@@H](O)[C@@H]1O [Compound 36, (2 S,3 R,4 R,5 S,6 R)-2-((5-(5-chloro-1H-indol-3-yl)isoxazol-3-yl)methyl)-6-(hydroxymethyl) tetrahydro-2H-pyran-3,4,5-triol] | 97.8 ± 11.6 | 96.8 ± 11.6 | 99.3 ± 4.28 | – |
| O=[N+]([O-])c1ccc2[nH]cc(-c3cc(C[C@@H]4O[C@H](CO)[C@H](O)[C@H](O)[C@H]4O)no3)c2c1 [Compound 38, (2 R,3 R,4 R,5 R,6 S)-2-(hydroxymethyl)-6-((5-(5-nitro-1H-indol-3-yl)isoxazol-3-yl)methyl) tetrahydro-2H-pyran-3,4,5-triol] | 99.1 ± 5.63 | 94.5 ± 3.67 | 94.9 ± 4.49 | – |
| OC[C@H]1O[C@@H](Cc2cc(-c3c[nH]c4ccc(Br)cc34)on2)[C@H](O)[C@@H](O)[C@H]1O [Compound 39, (2 S,3 R,4 R,5 R,6 R)-2-((5-(5-bromo-1H-indol-3-yl)isoxazol-3-yl)methyl)-6-(hydroxymethyl) tetrahydro-2H-pyran-3,4,5-triol] | 120 ± 17.6 | 89.4 ± 5.32 | 90.3 ± 2.88 | – |
| OC[C@H]1O[C@@H](Cc2cc(-c3c[nH]c4ccc(Cl)cc34)on2)[C@H](O)[C@@H](O)[C@H]1O [Compound 40, (2 S,3 R,4 R,5 R,6 R)-2-((5-(5-chloro-1H-indol-3-yl)isoxazol-3-yl)methyl)-6-(hydroxymethyl) tetrahydro-2H-pyran-3,4,5-triol] | 93.7 ± 2.68 | 96 ± 1.81 | 87.9 ± 4.71 | – |
| OC[C@H]1O[C@@H](Cc2cc(-c3c[nH]c4ccccc34)on2)[C@@H](O)[C@@H](O)[C@@H]1O [Compound 41, (2 S,3 S,4 R,5 S,6 R)-2-((5-(1H-indol-3-yl)isoxazol-3-yl)methyl)-6-(hydroxymethyl) tetrahydro-2H-pyran-3,4,5-triol] | 89.2 ± 3.7 | 81.2 ± 5.17 | 74 ± 17.6 | – |
| O=[N+]([O-])c1ccc2[nH]cc(-c3cc(C[C@@H]4O[C@H](CO)[C@@H](O)[C@H](O)[C@@H]4O)no3)c2c1 [Compound 42, (2 R,3 S,4 R,5 S,6 S)-2-(hydroxymethyl)-6-((5-(5-nitro-1H-indol-3-yl)isoxazol-3-yl)methyl) tetrahydro-2H-pyran-3,4,5-triol] | 92.6 ± 11.5 | 93.4 ± 15.7 | 95.2 ± 13.6 | – |
| OC[C@H]1O[C@@H](Cc2cc(-c3c[nH]c4ccc(Br)cc34)on2)[C@@H](O)[C@@H](O)[C@@H]1O [Compound 43, (2 S,3 S,4 R,5 S,6 R)-2-((5-(5-bromo-1H-indol-3-yl)isoxazol-3-yl)methyl)-6-(hydroxymethyl) tetrahydro-2H-pyran-3,4,5-triol] | 96.6 ± 3.98 | 85.2 ± 2.93 | 95.7 ± 3.26 | – |
| OC[C@H]1O[C@@H](Cc2cc(-c3c[nH]c4ccc(Cl)cc34)on2)[C@@H](O)[C@@H](O)[C@@H]1O [Compound 44, (2 S,3 S,4 R,5 S,6 R)-2-((5-(5-chloro-1H-indol-3-yl)isoxazol-3-yl)methyl)-6-(hydroxymethyl) tetrahydro-2H-pyran-3,4,5-triol] | 83.9 ± 4.08 | 82.9 ± 5.28 | 81.7 ± 3.45 | – |
| CC1=CC(=O)c2ccccc2C1=O [Menadione, menadione, reference compound] | – | – | – | viability at 20 µM ([3]; Homo sapiens, MDA-MB-231, MDA-MB-231, positive control at 20 µM, read-out: Cell Viability (%) ± SD): 20.8 ± 8.7% |
| COCCn1c2c([n+](Cc3cnccn3)c1C)C(=O)c1ccccc1C2=O [YM155, reference compound] | – | – | – | viability at 72 h, 0.02 µM ([1]; positive control at 20 nM): 48.2 ± 1.6%; viability at 0.02 µM (MDA-MB-453 cells; MDA-MB-453, positive control at 20 nM): 33.2 ± 1.5%; viability at 0.02 µM ([2]; MCF-7, positive control at 20 nM): 37.2 ± 1.7%; viability at 0.02 µM ([3]; Homo sapiens, MDA-MB-231, MDA-MB-231, positive control at 20 nM, read-out: Cell Viability (%) ± SD): 27.4 ± 4.93% |
| (E)-4-(1H-indol-3-yl)-1-((2S,3S,4R,5S,6R)-3,4,5-trihydroxy-6-(hydroxymethyl) tetrahydro-2H-pyran-2-yl) but-3-en-2-one [Compound 19] | – | – | – | Cell Viability (%) ± SD ([3]; MDA-MB-231, 10 µM): 102.51 ± 10.39%; Cell Viability (%) ± SD ([3]; MDA-MB-231, 25 µM): 89.20 ± 28.63%; Cell Viability (%) ± SD ([3]; MDA-MB-231, 50 µM): 71.48 ± 6.24% |
